Results: US8909483B2, “Direct or indirect diagnostic test for helminth infection” (priority 2002, dated 2014)

Experiments:
Assay type in all cases: in vivo, outbred Swiss mice
[1] = system: F. hepatica; assay: Fasciola hepatica protection assay (Example 6, FIG. 13); conditions: footpad, oral challenge 3 metacercariae, sacrifice 30 days after challenge
From the text: Due to the limited number of parasites used for challenge, animals are considered protected when they present sterile immunity, i.e. no adult worms are present after sacrifice. The mean protection is therefore given as the percentage of sterile animals at sacrifice. From left to right the bars correspond to peptide 1.1, peptide 1.3, peptide 1.4, peptide 2.1, peptide 2.5, r-Sm14+adjuvant, r-Sm14, adjuvant and PBS respectively. The adjuvant used was monophosphoryl lipid A+trehalose dicorynomycolate (MPL-TDM, Ribi ImmunoChem Research Inc.)+Alum.
This example refers to the use of some of the peptides described in Example 1 for vaccination against Fasciola hepatica in the Swiss mouse model. For the Fasciola hepatica protection assay each group (10 outbred Swiss mice/group) received three intradermal/subcutaneous doses via the footpad using an identical protocol to that described above for S. mansoni. Animals were vaccinated with either 70 μg of one of the sub-group of peptides described above (1.1, 1.3, 1.4, 2.1 and 2.5), emulsified in Ribi adjuvant (MPL-TDM) and Al(OH)3 or 10 μg of r-Sm14 (in the presence or absence of adjuvant), or an equivalent amount of adjuvant alone. Vaccinated and non-vaccinated control groups were simultaneously challenged orally with 3 metacercariae of F. hepatica 60 days after immunization and the sacrifice of all animals performed 30 days after challenge.

[2] = system: S. mansoni; assay: Second vaccination experiment against S. mansoni, footpad route (Example 5, FIG. 12); conditions: challenge 100 cercariae; for Performance (protection) compared with recombinant whole protein r-Sm14: footpad route; for Percentage protection {(C−V)/C}×100: 70 μg peptide + MPL-TDM + Al(OH)3, footpad route, perfused 45 days later
Procedure: Percentage protection is given as in FIG. 9. From left to right the bars correspond to peptide 1.1, peptide 1.3, peptide 1.4, peptide 2.1, peptide 2.5, r-Sm14, adjuvant and PBS respectively. In this experiment all samples were administered via the footpad. All peptides were administered in the presence of adjuvant: monophosphoryl lipid A+trehalose dicorynomycolate (MPL-TDM, Ribi ImmunoChem Research Inc.)+Alum.
In this experiment an identical protocol as Example 4 was employed for a sub-group of peptides including those which appeared most promising (1.1; 1.3; 1.4 and 2.1) together with 2.5 as a control, but employing the footpad as the route of administration.
(§1) Animals were challenged subcutaneously with 100 cercariae, 60 days after the last immunization and perfused 45 days later. Overall protection was calculated by the formula {(C−V)/C}×100, where C is the average number of worms in control animals and V is the average number of worms in vaccinated animals.

[3] = system: S. mansoni; assay: First vaccination experiment against S. mansoni (Example 4, FIG. 11); conditions: 70 μg peptide + MPL-TDM + Al(OH)3, inguinal route, challenge 100 cercariae 60 days after last immunization, perfused 45 days later
Procedure: Percentage protection, {(C−V)/C}×100}, of outbred Swiss mice is given after vaccination and subsequent challenge with 100 cercariae. From left to right the bars correspond to vaccination with peptide 1.2, peptide 1.3, peptide 1.4, peptide 2.1, peptide 2.2, peptide 2.3, peptide 2.4, peptide 2.5, peptide 2.6, r-Sm14, saline extract (SE) administered via the footpad, SE administered via the inguinal route, adjuvant and PBS respectively. All peptides were administered via the inguinal route. All peptides were administered in the presence of the adjuvant monophosphoryl lipid A+trehalose dicorynomycolate (MPL-TDM, Ribi ImmunoChem Research Inc.)+Alum.
In this experiment, outbreed Swiss mice were immunized with two intradermal/subcutaneous doses at an interval of 7 days followed by a booster injection, 21 days later. In the case of the peptides, a dose of 70 μg in the presence of the adjuvant monophosphoryl lipid A+trehalose dimycolate (MPL-TDM, Ribi ImmunoChem Research Inc.) and Al(OH)3 was used for all injections. […]
as §1, with “For assays of protection against S. mansoni, the animals” for “Animals”

[4] = with adjuvant MPL-TDM + Al(OH)3, 70 μg peptide or 10 μg r-Sm14

VTVGDVTGGSDAVMSKLG (Oligopeptide derived from the fusion of two peptides from Schistosoma mansoni) [Peptide 1.4, 1.3 modified]
Percentage protection (percentage of sterile animals at sacrifice) [1, 4]: 100%
Performance (protection) compared with recombinant whole protein r-Sm14 [2]: equivalent to that seen for the recombinant whole protein

VTVGDVTANFDAVMSKLG (Oligopeptide derived from the fusion of two peptides from Schistosoma mansoni) [Peptide 1.3, Union of 1.1 and 1.2]
Percentage protection (percentage of sterile animals at sacrifice) [1, 4]: 50%
Performance (protection) compared with recombinant whole protein r-Sm14 [2]: equivalent to that seen for the recombinant whole protein

EKNSESKLTQ (Oligopeptide from Schistosoma mansoni) [Peptide 2.1, Loop between β-strands 6 and 7 of Sm14, residues 85 to 94]
Percentage protection (percentage of sterile animals at sacrifice) [1, 4]: 100%
Percentage protection {(C−V)/C}×100 [2]: 50%
Performance (protection) compared with recombinant whole protein r-Sm14 [2]: equivalent to that seen for the recombinant whole protein

VTVGDVTA (oligopeptide from Schistosoma mansoni) [Peptide 1.1, Loop between β-strands 9 and 10 of Sm14, residues 118 to 125]
Percentage protection (percentage of sterile animals at sacrifice) [1, 4]: 66.7%
Percentage protection {(C−V)/C}×100 [2]: ~50%
Performance (protection) compared with recombinant whole protein r-Sm14 [2]: equivalent to that seen for the recombinant whole protein

EKFSESKLTFDGIVREVDGATMKTT (Oligopeptide derived from the fusion of two peptides from Schistosoma mansoni) [Peptide 2.5, Alternate modification to 2.3]
Percentage protection {(C−V)/C}×100 [3]: no protection at all and zero

KIGTSVFGTRTSKFDATEMVLDKEE [Peptide 2.6, 2.5 randomized; control peptide of identical amino acid composition]
Percentage protection {(C−V)/C}×100 [3]: no protection at all and zero

B1: r-Sm14: recombinant Sm14 protein expressed by the pRSETA-6×His-Sm14 construct in E. coli BL21(DE3) (protein, UniProt P29498 1-133, looked up)
14 kDa fatty acid-binding …: MSSFLGKWKLSESHNFDAVMSKLGVSWATRQIGNTVTPTVTFTMDGDKMTMLTESTFKNLSCTFKFGEEFDEKTSDGRNVKSVVEKNSESKLTQTQVDPKNTTVIVREVDGDTMKTTVTVGDVTAIRNYKRLS
modifications: 6xHis tag
Percentage protection (percentage of sterile animals at sacrifice) ([1]; absence of adjuvant, 10 μg r-Sm14): 100%
Percentage protection (percentage of sterile animals at sacrifice) [1, 4]: 100%
